Assay results published in patent US20120016011A1, “RNA Interference Mediated Inhibition of Connective Tissue Growth Factor (CTGF) Gene Expression Using Short Interfering Nucleic Acid (siNA)” (Merck Sharp & Dohme Corp., priority 2009, published 2012).
[invAb] = inverted abasic unit; m = 2'-O-methyl; r = 2'-OH (RNA); f = 2'-fluoro

System: collagen secretion (PICP) by HLF cells
Assay: Pro-collagen Type I C-terminal Pro-peptide (PICP) MSD assay, collagen secretion by HLF cells
Format: cell-based, human
Settings: TGF-β1 treated, vs universal control siNA, FIG. 13
Experimental: A Pro-collagen Type I C-terminal Pro-peptide (PICP) MSD assay was done on HLF cells transfected with siNAs and treated with TGF-β1. Supernatant from the HLF cells transfected with siNAs and treated with TGF-β1, was removed 72 hours after transfection and 48 hours after treatment. Plates and reagents (except antibodies) were purchased from Meso Scale Discovery. High bind, small spot 96 well MSD plates were spotted with 20 ng/well of the capture antibody (pro-collagen type I C-terminal pro-peptide, human PICP, Caltag Medsystmes) using a TTP LabTech Mosquito. Plates were left to dry for 48 hours before use. The MSD assay was performed as outlined: Plates were blocked with 30 mg/ml Blocker A, sealed and then shook on a plate shaker for 1 hour at RT. Plates were washed 3× with MSD Tris wash buffer. 25 μl of the supernatants were added for 1 hour on a plate shaker, plates were washed as before. The detection antibody (Anti-pro-collagen type I C-terminal pro-peptide, human PICP, Caltag Medsystmes Ltd) was diluted to 800 ng/ml in 10 mg/ml blocker A solution. This antibody had previously been Sulfo-Tagged using Sulfo-Tag NHS Ester (MSD) according to manufacturer's instructions. 25 μl of the diluted sulfo-tagged detection antibody was added, and left as before on a plate shaker for 1 hour. […] 150 μl of 1× Read buffer T was added per well, and the plates read on the MSD sector reader. […]

| Substance | Collagen secretion (PICP secretion) induced by TGF-β1 |
| --- | --- |
| 48048-DC: siNA duplex; sense SEQ ID NO: 61 B GAuAGcAucuuAuAcGAGu TTB; antisense SEQ ID NO: 62 ACUcGuAuAAGAuGcuAucUU (sense GAUAGCAUCUUAUACGAGUTT; antisense ACUCGUAUAAGAUGCUAUCUU; sense: DNA at AGT, 2'-fluoro at CU, [invAb] at 5' end, 3' end, backbone not given here; antisense: sugars from the 5' end rrrfmfmfmmmmfmffmffmm, backbone not given here) | returned the levels of PICP secretion to near basal levels |
| 48042-DC: siNA duplex; sense SEQ ID NO: 49 B GAcAuuAAcucAuuAGAcu TTB; antisense SEQ ID NO: 50 AGUcuAAuGAGuuAAuGucUU (sense GACAUUAACUCAUUAGACUTT; antisense AGUCUAAUGAGUUAAUGUCUU; sense: DNA at AGT, 2'-fluoro at CU, [invAb] at 5' end, 3' end, backbone not given here; antisense: sugars from the 5' end rrrffmmfmmmffmmfmffmm, backbone not given here) | returned the levels of PICP secretion to near basal levels |
